Laboratory results: patent US20230340498A1, “COMPOSITIONS AND METHODS FOR INDUCIBLE ALTERNATIVE SPLICING REGULATION OF GENE EXPRESSION” (The Children's Hospital of Philadelphia, priority 2020, published 2023)

System: SF3B3-on switch
Experiment: Candidate minigene (SF3B3, BENC1, C12orf4, PDXDC2) switch-on luciferase assay in HEK293 cells
Format: cell-based, Human
Description: Cell culture, transfection, and LMI070/RG7800 treatment. Human embryonic kidney (HEK293) cells (obtained from CHOP Research Vector Core stock) were maintained in DMEM media containing 10% Fetal Bovine Serum (FBS), 1% L-Glutamine and 1% penicillin/streptomycin at 37° C. with 5% CO2. Cells were cultured in 24 well plates and transfected at 80-90% confluence using Lipofectamine 2000 transfection reagent, according to the manufacturer’s protocol. For all experiments, 4 hours after plasmid transfection, cells were treated with LMI070 (MedChemExpress, HY-19620, suspended in DMSO) or RG7800 (MedChemExpress, HY-101792A, suspended in H2O) at the indicated concentrations. Cells were tested for mycoplasma by Research Vector Core. None of the cells used in the study were listed in ICLAC database of commonly misidentified cell lines.
In vitro luciferase assays. HEK293 cells were cultured in DMEM (10% FBS (v/v), 1% Pen/ Strep (v/v), and 1% L-glutamine (v/v) in a 24-well plate. At 70%-80% confluence, cells were co-transfected with the Xon.Firefly luciferase cassettes (0.3 µg/well) and a SV40p-Renilla luciferase cassette as transfection control (0.02 µg/well). Four hours after transfections cells were treated either with LMI070 or RG7800 at indicated concentrations. At 24 h after transfection, cells were rinsed with ice-cold PBS and Renilla and Firefly luciferase activities were assessed using the Dual-Luciferase Reporter Assay System (Promega) according to the manufacturer’s instructions. Luminescent readouts were obtained with a Monolight 3010 luminometer (Pharmigen). Relative light units (RLUs) were calculated as the quotient of […] RLUs and results expressed relative to mock treated control cells.
Next, a series of switch-on cassettes were developed from the top 4 LMI070-responsive exons found in the RNA-Seq dataset. […] HEK293 cells were transfected with the candidate cassettes, treated with LMI070, and luciferase activity or eGFP expression determined 24 h later. […]

With CC1(C)CC(Oc2ccc(-c3ccc(-c4cn[nH]c4)cc3O)nn2)CC(C)(C)N1 [LMI070, 5-(1H-Pyrazol-4-yl)-2-(6-((2,2,6,6-tetramethylpiperidin-4-yl)oxy)pyridazin-3-yl)phenol] the “luciferase expression of each candidate cassette in response to LMI070” value (SF3B3, BENC1, C12orf4, PDXDC2 cassettes, 24 h) was “Increased luciferase expression”, the “luciferase induction of the SF3B3-on switch” value (in response to LMI070, relative to DMSO, 24 h) was “more than 100 fold” and the “fold-change in luciferase activity in response to LMI070, original intron” value (original SF3B3-on construct compared with alternate intron cassettes) was over 200 fold.
